Values belong to the molecule of their own block, whether it stands above or below them.
Experiments:
[1] = target: T1, human recombinant GST cleaved CSNK1D (Homo sapiens, UniProt P48730); assay: Purified Enzyme Assay (ADP-Glo CSNK1D Kinase Assay); type: biochemical; conditions: 2 nM CSNK1D; peptide substrate 150 μM; ATP 20 μM; 45 minutes at room temperature
T1 construct: GST (cleaved yes); purchased University of Dundee clone DU 19064
Procedure, shortened: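 Percent activity derived from ADP-Glo quantification of ADP produced. Reactions: compound dose-response with human recombinant GST-cleaved CSNK1D, ATP and substrate peptide PLSRTL-pS-VASLPGL, incubated 45 min at room temperature.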

human CSNK1D = target: T2, human CSNK1D (Homo sapiens, UniProt P48730); assay: Whole Cell nBRET CSNK1D Binding Assay; conditions: living CHO cells stably expressing human CSNK1D tagged with nanoluciferase; NanoBret tracer 130 nM; 2 hours at 37 C
T2 construct: expressed in transfected cells
T2 sequence (P48730 whole entry): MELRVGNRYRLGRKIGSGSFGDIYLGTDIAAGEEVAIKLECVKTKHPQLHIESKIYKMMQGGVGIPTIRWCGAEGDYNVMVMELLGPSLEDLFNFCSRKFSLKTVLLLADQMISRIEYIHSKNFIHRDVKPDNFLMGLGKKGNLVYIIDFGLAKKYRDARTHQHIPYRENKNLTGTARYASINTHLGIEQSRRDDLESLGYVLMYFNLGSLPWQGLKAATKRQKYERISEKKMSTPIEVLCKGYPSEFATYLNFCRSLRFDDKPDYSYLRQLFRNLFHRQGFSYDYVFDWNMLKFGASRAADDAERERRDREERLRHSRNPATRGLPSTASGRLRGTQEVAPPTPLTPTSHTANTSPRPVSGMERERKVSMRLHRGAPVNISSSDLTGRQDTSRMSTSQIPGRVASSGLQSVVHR

T1 sequence (P48730 whole entry): as above

SMILES: Cc1n[nH]c2nc(C(F)F)cc(-c3c(-c4ccc(F)cc4)nn4c3COC(C(F)(F)F)C4)c12 (single isomer, unassigned) [Example 375, (*R)-3-[6-(Difluoromethyl)-3-methyl-1H-pyrazolo[3,4-b]pyridin-4-yl]-2-(4-fluorophenyl)-6-(trifluoromethyl)-6,7-dihydro-4H-pyrazolo[5,1-c][1,4]oxazine]
IC50 [1]: 65 nM
IC50 (human CSNK1D): 109 nM

SMILES: [2H]C([2H])([2H])C1(C([2H])([2H])[2H])Cn2nc(-c3ccc(F)cn3)c(-c3c(F)c(C)nc4[nH]nc(Cl)c34)c2CO1 [Example 408, 3-(3-Chloro-5-fluoro-6-methyl-1H-pyrazolo[3,4-b]pyridin-4-yl)-2-(5-fluoropyridin-2-yl)-6,6-bis(methyl-d3)-6,7-dihydro-4H-pyrazolo[5,1-c][1,4]oxazine]
IC50 [1]: 6 nM
IC50 (human CSNK1D): 26 nM

SMILES: Cc1nc2[nH]nc(C)c2c(-c2c(-c3ccc(F)cn3)nn3c2CC[C@@]2(C3)CC2(F)F)c1F (single isomer, unassigned) [Example 333, (*S)-2,2-Difluoro-3′-(5-fluoro-3,6-dimethyl-1H-pyrazolo[3,4-b]pyridin-4-yl)-2′-(5-fluoropyridin-2-yl)-4′,5′-dihydro-7′H-spiro[cyclopropane-1,6′-pyrazolo[1,5-a]pyridine]]
IC50 [1]: 4960 nM
IC50 (human CSNK1D): > 10000 nM

SMILES: Fc1ccc(-c2nn3c(c2-c2c(F)cnc4[nH]ncc24)COC2(C3)CC2(F)F)nc1 (single isomer, unassigned) [Example 435, (*R)-1′. 1′-Difluoro-3-(5-fluoro-1H-pyrazolo[3,4-b]pyridin-4-yl)-2-(5-fluoro-2-pyridyl)spiro[4,7-dihydropyrazolo[5,1-c][1,4]oxazine-6,2′-cyclopropane]]
IC50 [1]: 5 nM
IC50 (human CSNK1D): 49 nM

SMILES: CC1(C)Cn2nc(-c3ccc(F)cn3)c(-c3ccnc4[nH]cc(C#N)c34)c2CO1 [Example 148, 4-(2-(5-Fluoropyridin-2-yl)-6,6-dimethyl-6,7-dihydro-4H-pyrazolo[5,1-c][1,4]oxazin-3-yl)-1H-pyrrolo[2,3-b]pyridine-3-carbonitrile]
IC50 [1]: 59 nM
IC50 (human CSNK1D): 3280 nM

SMILES: C[C@@H]1OCc2c(-c3ccnc4[nH]ncc34)c(-c3ccc(F)cc3)nn2[C@@H]1C (single isomer, unassigned) [Example 113, (6*S,7*R)-2-(4-Fluorophenyl)-6,7-dimethyl-3-(1H-pyrazolo[3,4-b]pyridin-4-yl)-6,7-dihydro-4H-pyrazolo[5,1-c][1,4]oxazine]
IC50 [1]: 10 nM
IC50 (human CSNK1D): 113 nM

SMILES: Cc1cn2nccc2cc1-c1c(-c2ccc(F)cn2)nn2c1COC(C)(C)C2 [Example 382, 2-(5-Fluoro-2-pyridyl)-6,6-dimethyl-3-(6-methylpyrazolo[1,5-a]pyridin-5-yl)-4,7-dihydropyrazolo[5,1-c][1,4]oxazine]
IC50 [1]: 451 nM
IC50 (human CSNK1D): > 10000 nM

SMILES: C[C@@H]1[C@@H](C)OCc2c(-c3ccnc4[nH]ncc34)c(-c3ccc(F)cn3)nn21 (stereo in doubt) [Example 118, (6*R,7*R)-2-(5-Fluoropyridin-2-yl)-6,7-dimethyl-3-(1H-pyrazolo[3,4-b]pyridin-4-yl)-6,7-dihydro-4H-pyrazolo[5,1-c][1,4]oxazine]
IC50 [1]: 49 nM
IC50 (human CSNK1D): 1160 nM

SMILES: [2H]C([2H])([2H])[C@]1(C([2H])([2H])F)CCc2c(-c3c(F)cnc4[nH]ncc34)c(-c3ccc(F)cn3)nn2C1 (single isomer, unassigned) [Example 295, (*S)-5-Fluoro-4-(6-(fluoromethyl-d2)-2-(5-fluoropyridin-2-yl)-6-(methyl-d5)-4,5,6,7-tetrahydropyrazolo[1,5-a]pyridin-3-yl)-1H-pyrazolo[3,4-b]pyridine]
IC50 [1]: 2 nM
IC50 (human CSNK1D): 24 nM

SMILES: [2H]C([2H])([2H])[C@]1(C(F)(F)F)Cn2nc(-c3ccc(F)cn3)c(-c3ccnc4[nH]ncc34)c2CO1 (single isomer, unassigned) [Example 423, (*R)-2-(5-Fluoropyridin-2-yl)-6-(methyl-d3)-3-(1H-pyrazolo[3,4-b]pyridin-4-yl)-6-(trifluoromethyl)-6,7-dihydro-4H-pyrazolo[5,1-c][1,4]oxazine]
IC50 [1]: 67 nM
IC50 (human CSNK1D): 1570 nM

SMILES: [2H]C([2H])([2H])[C@@]1(C([2H])([2H])F)CCc2c(-c3c(F)cnc4[nH]ncc34)c(-c3ccc(F)cn3)nn2C1 (single isomer, unassigned) [Example 294, (*R)-5-Fluoro-4-(6-(fluoromethyl-d2)-2-(5-fluoropyridin-2-yl)-6-(methyl-d3)-4,5,6,7-tetrahydropyrazolo[1,5-a]pyridin-3-yl)-1H-pyrazolo[3,4-b]pyridine]
IC50 [1]: 2 nM
IC50 (human CSNK1D): 23 nM

SMILES: Cc1cc(-c2c(-c3ccc(F)cc3)nn3c2OCCC3)c2cn[nH]c2n1 [Example 185, 2-(4-Fluorophenyl)-3-(6-methyl-1H-pyrazolo[3,4-b]pyridin-4-yl)-6,7-dihydro-5H-pyrazolo[5,1-b][1,3]oxazine]
IC50 [1]: 1 nM
IC50 (human CSNK1D): 17 nM

More lines, in order of falling IC50 [1], values ahead:

IC50 [1]: 539 nM
IC50 (human CSNK1D): 120 nM
SMILES: CC1(CF)CCc2c(-c3ccn4nccc4c3)c(-c3ccc(F)cn3)nn2C1 (single isomer, unassigned) [Example 290, (*S)-5-[6-(Fluoromethyl)-2-(5-fluoro-2-pyridyl)-6-methyl-5,7-dihydro-4H-pyrazolo[1,5-a]pyridin-3-yl]pyrazolo[1,5-a]pyridine]

IC50 [1]: 524 nM
IC50 (human CSNK1D): > 10000 nM
SMILES: CCn1ncc2cc(-c3c(-c4ccc(F)cc4)nn4c3COCC4C)cnc21 (centres unmarked) [Example 370, 3-(1-Ethyl-1H-pyrazolo[3,4-b]pyridin-5-yl)-2-(4-fluorophenyl)-7-methyl-6,7-dihydro-4H-pyrazolo[5,1-c][1,4]oxazine]

IC50 [1]: 84 nM
IC50 (human CSNK1D): 3740 nM
SMILES: COC[C@@]1(F)CCc2c(-c3cc(C)nc4[nH]ncc34)c(-c3ccc(F)cn3)nn2C1 (single isomer, unassigned) [Example 54, (*R)-4-(6-Fluoro-2-(5-fluoropyridin-2-yl)-6-(methoxymethyl)-4,5,6,7-tetrahydropyrazolo[1,5-a]pyridin-3-yl)-6-methyl-1H-pyrazolo[3,4-b]pyridine]

IC50 [1]: 17 nM
IC50 (human CSNK1D): 343 nM
SMILES: CC1(C)Cn2nc(-c3cscn3)c(-c3ccnc4[nH]ncc34)c2CO1 [Example 124, 6,6-Dimethyl-3-(1H-pyrazolo[3,4-b]pyridin-4-yl)-2-(thiazol-4-yl)-6,7-dihydro-4H-pyrazolo[5,1-c][1,4]oxazine]

IC50 [1]: 12 nM
IC50 (human CSNK1D): 117 nM
SMILES: Fc1ccc(-c2nn3c(c2-c2ccnc4[nH]nc(Cl)c24)CC2(C3)CC2(F)F)nc1 (single isomer, unassigned) [Example 256, (*S)-3-(3-Chloro-1H-pyrazolo[3,4-b]pyridin-4-yl)-1′,1′-difluoro-2-(5-fluoro-2-pyridyl)spiro[4,6-dihydropyrrolo[1,2-b]pyrazole-5,2′-cyclopropane]]

IC50 [1]: 6 nM
IC50 (human CSNK1D): 23 nM
SMILES: Fc1ccc(-c2nn3c(c2-c2ccnc4[nH]ncc24)CCC2(C3)CC2(F)F)cc1 (single isomer, unassigned) [Example 326, (*S)-2,2-Difluoro-2′-(4-fluorophenyl)-3′-1H-pyrazolo[3,4-b]pyridin-4-yl)-4′,5′-dihydro-7′H-spiro[cyclopropane-1,6′-pyrazolo[1,5-a]pyridine]]

IC50 [1]: 3 nM
IC50 (human CSNK1D): 107 nM
SMILES: Cc1cc(-c2c(-c3ccc(F)cn3)nn3c2C[C@@]2(C3)CC2(F)F)c2cn[nH]c2n1 (single isomer, unassigned) [Example 260, (*S)-1′,1′-Difluoro-2-(5-fluoro-2-pyridyl)-3-(6-methyl-1H-pyrazolo[3,4-b]pyridin-4-yl)spiro[4,6-dihydropyrrolo[1,2-b]pyrazole-5,2′-cyclopropane]]

IC50 [1]: 2 nM
IC50 (human CSNK1D): 24 nM
SMILES: Fc1ccc(-c2nn3c(c2-c2ccnc4[nH]ncc24)OCC2(CC2)C3)nc1 [Example 460, 2′-(5-Fluoropyridin-2-yl)-3′-(1H-pyrazolo[3,4-b]pyridin-4-yl)-5′H,7′H-spiro[cyclopropane-1,6′-pyrazolo[5,1-b][1,3]oxazine]]

IC50 [1]: 2 nM
IC50 (human CSNK1D): 71 nM
SMILES: Fc1ccc(-c2nn3c(c2-c2c(F)cnc4[nH]ncc24)C[C@@H]2C[C@@H]23)nc1 [Example 272, (4aS,5aS)-3-(5-Fluoro-1H-pyrazolo[3,4-b]pyridin-4-yl)-2-(5-fluoropyridin-2-yl)-4,4a,5,5a-tetrahydrocyclopropa[4,5]pyrrolo[1,2-b]pyrazole]

IC50 [1]: 1 nM
IC50 (human CSNK1D): 28 nM
SMILES: CC(=O)Nc1cc(-c2c(-c3ccc(F)cc3)nn3c2OCCCC3)ccn1 [Example 215, N-(4-(2-(4-Fluorophenyl)-5,6,7,8-tetrahydropyrazolo[5,1-b][1,3]oxazepin-3-yl)pyridin-2-yl)acetamide]

IC50 [1]: 1 nM
IC50 (human CSNK1D): 3 nM
SMILES: Fc1ccc(-c2nn3c(c2-c2c(F)cnc4[nH]ncc24)C[C@H](F)C3)cc1 [Example 227, 5-Fluoro-4-[(5S)-5-fluoro-2-(4-fluorophenyl)-5,6-dihydro-4H-pyrrolo[1,2-b]pyrazol-3-yl]-1H-pyrazolo[3,4-b]pyridine]

IC50 [1]: 1 nM
IC50 (human CSNK1D): 1 nM
SMILES: CC(=O)Nc1cc(-c2c(-c3ccc(F)cc3)nn3c2CC[C@H]2[C@@H]3C2(F)F)ccn1 (stereo in doubt) [Example 350, N-(4-((5a*S,6a*R)-6,6-Difluoro-2-(4-fluorophenyl)-5,5a,6,6a-tetrahydro-4H-cyclopropa[e]pyrazolo[1,5-a]pyridin-3-yl)pyridin-2-yl)acetamide]

IC50 [1]: 1 nM
IC50 (human CSNK1D): 20 nM
SMILES: Cc1cc(-c2c(-c3ccc(F)cn3)nn3c2OCC2(CC2)C3)c2cn[nH]c2n1 [Example 462, 2′-(5-Fluoropyridin-2-yl)-3′-(6-methyl-1H-pyrazolo[3,4-b]pyridin-4-yl)-5′H,7′H-spiro[cyclopropane-1,6′-pyrazolo[5,1-b][1,3]oxazine]]
